Results from patent US20250099421A1 (priority 2023, published 2025).

How the values were obtained:
[1] = cited from earlier work
[2] = tested on: rat monosodium iodoacetate model of knee osteoarthritis; details: in vivo

Compound	half-life in-vivo [1]	weight bearing asymmetry at acute time points on Day 14 versus vehicle [2]
hyaluronic acid [HA]	hours-days	–
C=C(C)[C@]12C[C@@H](C)[C@@]34O[C@](Cc5ccccc5)(O[C@@H]1[C@@H]3C=C(COC(=O)Cc1ccc(O)c(OC)c1)C[C@]1(O)C(=O)C(C)=C[C@@H]41)O2 [RTX, resiniferatoxin]	–	increased weight bearing asymmetry
COc1cc(CNC(=O)CCCC/C=C/C(C)C)ccc1O [CAP, capsaicin]	–	increased weight bearing asymmetry
